Measured values as given in patent US20250000801A1, “DAROLUTAMIDE PHARMACEUTICAL COMPOSITION, PREPARATION METHOD THEREFOR AND USE THEREOF” (Sinotherapeutics Inc., priority 2021, published 2025).
In brackets after ≈: the same amount, converted by molar mass. Read-outs that look alike come from different tables or passages of the source.

Tests used:
[1] = system: non-metastatic castration-resistant prostate cancer (nmCRPC); settings: Phase III, cited from earlier work
[2] = Determination of dissolution, USP II method (paddle method); assay type: physicochemical; settings: phosphate buffer pH 6.8, 1000 ml, 75 rpm
Description: In the following examples, the dissolution of the formulation is determined using the USP II method (paddle method) in the US Pharmacopoeia, with specific parameters as follows.
According to the above procedures, the dissolutions of Darolutamide in phosphate buffer, pH 6.8 were determined and the results were shown in Table 9.

[3] = cited from earlier work
physchem = settings: 37.2 °C, pH 6.8, aqueous buffer, thermodynamic from solid
Description: About 200 mg of sample is weighted into a 50 ml shaking flask and then 50 ml of medium with pH of 6.8 is added. The shaking flask is mixed well and placed in a shaker. The shaker temperature is set as 37.2° C. and the rotation speed is set as 50 rpm. The sample is taken at 4 hours and 0.45 μM filter membrane is used for filtration to collect filtrate. High-performance liquid chromatography is used for determination with wavelength at 286 nm.

[4] = cited from earlier work; remark: listed apart in the source
[5] = single dose pharmacokinetic study

CC(O)c1cc(C(=O)N[C@@H](C)Cn2ccc(-c3ccc(C#N)c(Cl)c3)n2)n[nH]1 (stereo partly drawn) [Darolutamide, N-[(1S)-2-[3-(3-chloro-4-cyanophenyl)-1H-pyrazol-1-yl]-1-methylethyl]-5-(1-hydroxyethyl)-1H-pyrazole-3-carboxamide]
reduction of the risk of disease metastasis or death ([1]; Darolutamide combined with ADT vs placebo combined with ADT): 59% | median metastasis free survival (MFS) ([1]; Darolutamide combined with ADT): 40.4 months | Dissolution ([2]; 5 min): 7% | Dissolution ([2]; 15 min): 10% | Dissolution ([2]; 30 min): 9% | Dissolution ([2]; 45 min): 12% | BCS classification ([3]; low solubility and high permeability): BCS Class II | solubility in aqueous media ([3]; pH 1-6.8): 14 to 23 µg/mL | solubility at 4 h (physchem): 24.9 µg/mL (≈ 62.4 µM) | bioavailability ([4]; 300 mg, fasting state): about 30% | coefficient of variation (CV %) of AUC(0-4) ([4]; administration dosage of 300 mg): 69.6% | coefficient of variation (CV %) of AUC(0-4) ([4]; administration dosage of 600 mg): 41.4% | increase of AUC(0-4) in feeding state ([4]; after administration of 300 mg or 600 mg): 2.5 fold | increase of bioavailability in feeding state ([4]; single dose administration of 300 mg): 2.5 fold | increase of bioavailability in feeding state ([4]; single dose administration of 600 mg): 2.8 fold | end half-life [4, 5]: 10 to 15 h | median Tmax [4, 5]: 3 to 6 h
